Among the data in patent publication US20260297080A1, “BICYCLIC COMPOUNDS AS CDK INHIBITORS” (BeOne Medicines I GmbH, priority 2022, published 2026) are IC50 values, retold here.

Each structure is given as a SMILES string.

The target in one assay is CDK1/Cyclin B1 (Homo sapiens, UniProt P06493). As to the kind of experiment: CDK1/Cyclin B1 Biochemical Assay (TR-FRET), 1 mM ATP. The following applies: 0.15 μM Rb (Ser780)-biotin substrate, pH7.0, 60 min preincubation, 90 min reaction, room temperature. The gist of the method: (§1)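 TR-FRET kinase reaction with 1 mM ATP and 0.15 μM Rb (Ser780)-biotin substrate in pH 7.0 HEPES buffer; enzyme preincubated 60 min with compound (0-10 μM), then reacted 90 min at room temperature. Phospho-Rb detected by Eu-anti-pRb/streptavidin-XL665 665/620 nm ratio; IC50 from four-parameter logistic fit.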
A general note: In TR-FRET formats the signal depends on donor and acceptor labels being close together.

The target of a further assay is CDK2/Cyclin E1 (Homo sapiens, UniProt P24941). As to the kind of experiment: CDK2/Cyclin E1 Biochemical Assay (TR-FRET), 1 mM ATP. Particulars: 0.15 μM Rb (Ser780)-biotin substrate, pH7.0, 60 min preincubation, 90 min reaction, room temperature. The gist of the method: as §1

Sequence of CDK1/Cyclin B1 (P06493 whole entry): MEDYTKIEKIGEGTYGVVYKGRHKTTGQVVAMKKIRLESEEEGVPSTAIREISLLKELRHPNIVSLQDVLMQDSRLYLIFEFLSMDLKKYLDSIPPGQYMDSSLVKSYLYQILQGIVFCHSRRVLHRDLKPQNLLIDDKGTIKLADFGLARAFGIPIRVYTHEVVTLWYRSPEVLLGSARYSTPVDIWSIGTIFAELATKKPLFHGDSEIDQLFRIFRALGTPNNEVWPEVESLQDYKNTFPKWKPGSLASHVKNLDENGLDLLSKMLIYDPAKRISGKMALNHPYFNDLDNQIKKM
Sequence of CDK1/Cyclin B1 (P14635 whole entry partner): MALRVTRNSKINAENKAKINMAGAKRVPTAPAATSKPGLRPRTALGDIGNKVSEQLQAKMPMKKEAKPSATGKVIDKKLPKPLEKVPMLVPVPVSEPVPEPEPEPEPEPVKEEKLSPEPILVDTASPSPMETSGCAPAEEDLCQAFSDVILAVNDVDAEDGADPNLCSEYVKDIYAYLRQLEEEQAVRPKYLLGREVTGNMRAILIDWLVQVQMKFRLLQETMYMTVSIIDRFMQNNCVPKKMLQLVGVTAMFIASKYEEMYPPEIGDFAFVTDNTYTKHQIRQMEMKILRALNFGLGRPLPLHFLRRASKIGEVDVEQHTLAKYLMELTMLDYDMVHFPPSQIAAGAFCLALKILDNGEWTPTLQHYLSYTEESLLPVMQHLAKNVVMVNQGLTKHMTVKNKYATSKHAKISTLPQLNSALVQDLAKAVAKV

A word on the IC50: it is the concentration at which inhibition is half-maximal. A lower IC50 goes with greater potency in that assay. `CC(C)(CO)NC(=O)O[C@H]1CC[C@@H](c2cc(Nc3ccc4c(c3F)CN(C3CC3)S4(=O)=O)n[nH]2)C1` (single isomer, unassigned) [Example 359a, cis-3-(3-((2-cyclopropyl-4-fluoro-1,1-dioxido-2,3-dihydrobenzo[d]isothiazol-5-yl)amino)-1H-pyrazol-5-yl)cyclopentyl(1-hydroxy-2-methylpropan-2-yl)carbamate]: the IC50 at CDK1/Cyclin B1 is 8020 nM; at CDK2/Cyclin E1, 14 nM.
`CC(C)(CO)NC(=O)O[C@H]1CC[C@@H](c2cc(Nc3ccc4c(c3F)CN(C3CC3)S4(=O)=O)n[nH]2)C1` (single isomer, unassigned) [Example 359b, cis-3-(3-((2-cyclopropyl-4-fluoro-1,1-dioxido-2,3-dihydrobenzo[d]isothiazol-5-yl)amino)-1H-pyrazol-5-yl)cyclopentyl(1-hydroxy-2-methylpropan-2-yl)carbamate]: the IC50 at CDK1/Cyclin B1 is 2890 nM; on CDK2/Cyclin E1 it was 7.1 nM.
For `CC(C)(CO)NC(=O)O[C@H]1CC[C@@H](c2cc(Nc3ccc4c(c3F)CS(=O)(=O)N4C3CC3)n[nH]2)C1` (single isomer, unassigned) [Example 363a, cis-3-(3-((1-cyclopropyl-4-fluoro-2,2-dioxido-1,3-dihydrobenzo[c]isothiazol-5-yl)amino)-1H-pyrazol-5-yl)cyclopentyl(1-hydroxy-2-methylpropan-2-yl)carbamate], the IC50 worked out at 2420 nM against CDK1/Cyclin B1 and 2.2 nM against CDK2/Cyclin E1.
Taken in the same sequence, the figures for `CC(C)(CO)NC(=O)O[C@H]1CC[C@@H](c2cc(Nc3ccc4c(c3F)CS(=O)(=O)N4C3CC3)n[nH]2)C1` (single isomer, unassigned) [Example 363b, cis-3-(3-((1-cyclopropyl-4-fluoro-2,2-dioxido-1,3-dihydrobenzo[c]isothiazol-5-yl)amino)-1H-pyrazol-5-yl)cyclopentyl(1-hydroxy-2-methylpropan-2-yl)carbamate] were 863 nM and 1.5 nM.
Take `O=C(NC12CC(C1)C2)O[C@H]1CC[C@@H](c2cc(Nc3cc4c(cc3F)S(=O)(=O)NC4)n[nH]2)C1` (single isomer, unassigned) [Example 422a, cis-3-(3-((6-fluoro-1,1-dioxido-2,3-dihydrobenzo[d]isothiazol-5-yl)amino)-1H-pyrazol-5-yl)cyclopentyl bicyclo[1.1.1]pentan-1-ylcarbamate]: the concentration for half-maximal inhibition (IC50) at CDK1/Cyclin B1 worked out at 3250 nM; against CDK2/Cyclin E1, 2.3 nM.
In the same order, the values of `O=C(NC12CC(C1)C2)O[C@H]1CC[C@@H](c2cc(Nc3cc4c(cc3F)S(=O)(=O)NC4)n[nH]2)C1` (single isomer, unassigned) [Example 422b, cis-3-(3-((6-fluoro-1,1-dioxido-2,3-dihydrobenzo[d]isothiazol-5-yl)amino)-1H-pyrazol-5-yl)cyclopentyl bicyclo[1.1.1]pentan-1-ylcarbamate] are 980 nM and 1 nM.
Take `CC1(NC(=O)O[C@@H]2CC[C@H](c3cc(Nc4ccc5c(c4F)CS(=O)(=O)N5)n[nH]3)C2)CCC1` (single isomer, unassigned) [Example 427a]: the half-inhibitory concentration (IC50) at CDK1/Cyclin B1 was found to be 145 nM; against CDK2/Cyclin E1 it was 1.1 nM.
As for `CC1(NC(=O)O[C@H]2CC[C@@H](c3cc(Nc4ccc5c(c4F)CS(=O)(=O)N5)n[nH]3)C2)CCC1` (single isomer, unassigned) [Example 427b], the IC50 is 68 nM against CDK1/Cyclin B1 and 0.8 nM against CDK2/Cyclin E1.
Taken in the same sequence, the figures for `CC(C)NC(=O)O[C@@H]1CC[C@H](c2cc(Nc3ccc4c(c3F)CCS(=O)(=O)N4)n[nH]2)C1` (single isomer, unassigned) [Example 430a] were 1770 nM and 3.6 nM.
Taken in the same sequence, the figures for `CC(C)NC(=O)O[C@H]1CC[C@@H](c2cc(Nc3ccc4c(c3F)CCS(=O)(=O)N4)n[nH]2)C1` (single isomer, unassigned) [Example 430b] were 784 nM and 2.2 nM.
Take `CCCNC(=O)O[C@@H]1CC[C@H](c2cc(Nc3ccc4c(c3F)CS(=O)(=O)N4CC(C)(C)O)n[nH]2)C1` [Example 433a]: the IC50 was 3100 nM against CDK1/Cyclin B1 and 18 nM on CDK2/Cyclin E1.
